# Experiments:
# KRAS G12S = KRAS G12S (Homo sapiens (Human), UniProt P01116+P62937, G12S); assay: Ras-Raf (BRAF RBD) disruption / FRET / MOA assay, KRAS G12S; assay type: biochemical; settings: Ras-Raf disruption/FRET/MOA assay; class symbols; read-out: KRAS G12S FRET data IC50
# Experimental: (§1) The purpose of this biochemical assay is to measure the ability of test compounds to facilitate ternary complex formation between a nucleotide-loaded Ras isoform and cyclophilin A; the resulting ternary complex disrupts binding to a BRAF^RBD construct, inhibiting Ras signaling through a RAF effector.
# (§2) Compound is present in plate wells as a 10-point 3-fold dilution series starting at a final concentration of 30 μM. After incubation at 25° C. for 3 hours, a mixture of Anti-His Eu-W1024 and anti-GST allophycocyanin is then added to assay sample wells at final concentrations of 10 nM and 50 nM, respectively, and the reaction incubated for an additional 1.5 hours. […] Compounds that facilitate disruption of a Ras:RAF complex are identified as those eliciting a decrease in the TR-FRET ratio relative to DMSO control wells.
# (§3) This protocol may also be executed substituting other Ras proteins or nucleotides.
# (§4) The purpose of this biochemical assay was to measure the ability of test compounds to facilitate ternary complex formation between a nucleotide-loaded K-Ras isoform and Cyclophilin A; the resulting ternary complex disrupts binding to a BRAF^RBD construct, inhibiting K-Ras signaling through a RAF effector. Data is reported as IC50 values.
# as §2, with “Compound was” for “Compound is”, “allophycocyanin was” for “allophycocyanin is”, “a K-Ras:RAF” for “a Ras:RAF”, “complex were” for “complex are”
# KRAS G12D = KRAS G12D (Homo sapiens (Human), UniProt P01116+P62937, G12D); assay: Ras-Raf (BRAF RBD) disruption / FRET / MOA assay, KRAS G12D; assay type: biochemical; settings: Ras-Raf disruption/FRET/MOA assay; class symbols; read-out: KRAS G12D FRET data IC50
# Chain of KRAS G12D (P01116-2 other isoform, or with tags, fused parts or gaps G12D): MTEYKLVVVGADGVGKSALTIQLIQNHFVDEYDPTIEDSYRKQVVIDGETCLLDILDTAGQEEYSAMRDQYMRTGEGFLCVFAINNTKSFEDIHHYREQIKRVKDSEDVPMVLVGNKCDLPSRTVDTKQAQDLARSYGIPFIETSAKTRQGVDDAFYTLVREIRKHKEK
# Chain of KRAS G12D (P62937 whole entry): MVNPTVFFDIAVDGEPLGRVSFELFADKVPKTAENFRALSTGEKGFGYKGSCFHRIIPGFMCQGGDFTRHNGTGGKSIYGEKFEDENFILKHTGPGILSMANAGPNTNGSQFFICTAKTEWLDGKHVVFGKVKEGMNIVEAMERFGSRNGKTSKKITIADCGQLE
# Experimental: as §1, §2, §3, §4
# as §2, with “Compound was” for “Compound is”, “allophycocyanin was” for “allophycocyanin is”, “a K-Ras:RAF” for “a Ras:RAF”, “complex were” for “complex are”
# Chain of KRAS G12S (P01116-2 other isoform, or with tags, fused parts or gaps G12S): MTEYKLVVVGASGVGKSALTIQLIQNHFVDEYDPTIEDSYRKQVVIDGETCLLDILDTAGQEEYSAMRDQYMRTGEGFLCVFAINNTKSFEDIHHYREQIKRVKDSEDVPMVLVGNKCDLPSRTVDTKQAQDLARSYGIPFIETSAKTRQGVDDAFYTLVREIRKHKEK
# Chain of KRAS G12S (P62937 whole entry, canonical isoform): as the sequence (P62937 whole entry) above
SMILES,IC50 (KRAS G12S),IC50 (KRAS G12D)
C=CC(=O)N1CC[C@H](C(=O)N(C)[C@H](C(=O)N[C@H]2Cc3cc(O)cc(c3)-c3ccc4c(c3)c(c(-c3ccc(C5CCN(C)CC5)cc3)n4CC)CC(C)(C)COC(=O)[C@@H]3CCCN(N3)C2=O)C(C)C)C1 [Example A039],1 to 10 µM,1 to 10 µM
C=CC(=O)N1CC[C@H](C(=O)N(C)[C@H](C(=O)N[C@H]2Cc3cc(O)cc(c3)-c3ccc4c(c3)c(c(-c3ccc5c(c3)CCN(C)C5)n4CC)CC(C)(C)COC(=O)[C@@H]3CCCN(N3)C2=O)C(C)C)C1 [Example A040],1 to 10 µM,> 10 µM
C=CC(=O)N1C[C@H](C)[C@H](C(=O)N(C)[C@H](C(=O)N[C@H]2Cc3cc(O)cc(c3)-c3ccc4c(c3)c(c(-c3ccccc3CCOC)n4CC)CC(C)(C)COC(=O)[C@@H]3CCCN(N3)C2=O)C(C)C)C1 [Example A041],0.1 to 1 µM,> 10 µM
C=CC(=O)N1CC[C@H](C(=O)N(C)[C@H](C(=O)N[C@H]2Cc3cc(N)cc(c3)-c3ccc4c(c3)c(c(-c3ccccc3COC)n4CC)CC(C)(C)COC(=O)[C@@H]3CCCN(N3)C2=O)C(C)C)C1 [Example A042],> 10 µM,> 10 µM
C=CC(=O)N1C[C@H](C)[C@H](C(=O)N(C)[C@H](C(=O)N[C@H]2Cc3cc(O)cc(c3)-c3ccc4c(c3)c(c(-c3ccccc3CN(C)C)n4CC)CC(C)(C)COC(=O)[C@@H]3CCCN(N3)C2=O)C2CCCC2)C1 [Example A043],0.1 to 1 µM,1 to 10 µM
C=CC(=O)N1CC[C@H](C(=O)N(C)[C@H](C(=O)N[C@H]2Cc3cc(O)cc(c3)-c3ccc4c(c3)c(c(-c3cccnc3COCC)n4CC)CC(C)(C)COC(=O)[C@@H]3CCCN(N3)C2=O)C(C)C)C1 [Example A044],0.1 to 1 µM,1 to 10 µM
CCn1c(-c2ccccc2CN(C)C)c2c3cc(ccc31)-c1cc(O)cc(c1)C[C@H](NC(=O)[C@H](C(C)C)N(C)C(=O)c1ccc(NC(=O)/C=C/CN(C)C)cn1)C(=O)N1CCC[C@H](N1)C(=O)OCC(C)(C)C2 [Example A046],> 10 µM,1 to 10 µM
CCn1c(-c2ccccc2CN(C)C)c2c3cc(ccc31)-c1cc(O)cc(c1)C[C@H](NC(=O)[C@H](C(C)C)N(C)C(=O)c1ccc(NC(=O)/C=C/CN(C)C)cc1)C(=O)N1CCC[C@H](N1)C(=O)OCC(C)(C)C2 [Example A049],> 10 µM,> 10 µM
C=CC(=O)N1CC[C@H](C(=O)N(C)[C@H](C(=O)N[C@H]2Cc3cc(O)cc(c3)-c3ccc4c(c3)c(c(-c3ccc(CN(C)C)cc3COC)n4CC)CC(C)(C)COC(=O)[C@@H]3CCCN(N3)C2=O)C(C)C)C1 [Example A051],0.1 to 1 µM,1 to 10 µM
C=CC(=O)N1C[C@H](C)[C@H](C(=O)N(C)[C@H](C(=O)N[C@H]2Cc3cc(O)cc(c3)-c3ccc4c(c3)c(c(-c3cccnc3COC)n4CC)CC(C)(C)COC(=O)[C@@H]3CCCN(N3)C2=O)C(C)C)C1 [Example A056],0.1 to 1 µM,1 to 10 µM
C=CC(=O)N1C[C@H](C)[C@H](C(=O)N(C)[C@H](C(=O)N[C@H]2Cc3cc(O)cc(c3)-c3ccc4c(c3)c(c(-c3cccnc3COC)n4CC)CC(C)(C)COC(=O)[C@@H]3CCCN(N3)C2=O)C2CCCC2)C1 [Example A057],0.1 to 1 µM,1 to 10 µM
C=CC(=O)N1CC[C@H](C(=O)N(C)[C@H](C(=O)N[C@H]2Cc3cc(O)cc(c3)-c3ccc4c(c3)c(c(C3=C(COC)COCC3)n4CC)CC(C)(C)COC(=O)[C@@H]3CCCN(N3)C2=O)C(C)C)C1 [Example A058],0.1 to 1 µM,1 to 10 µM
C=CC(=O)N1CC[C@H](C(=O)N(C)[C@H](C(=O)N[C@H]2Cc3cc(OC(C)=O)cc(c3)-c3ccc4c(c3)c(c(-c3ccccc3CN(C)C)n4CC)CC(C)(C)COC(=O)[C@@H]3CCCN(N3)C2=O)C(C)C)C1 [Example A059],> 10 µM,> 10 µM
C=CC(=O)N1CC[C@H](C(=O)N(C)[C@H](C(=O)N[C@H]2Cc3cc(O)cc(c3)-c3ccc4c(c3)c(c(-c3cccnc3COC)n4C)CC(C)(C)COC(=O)[C@@H]3CCCN(N3)C2=O)C(C)C)C1 [Example A066],1 to 10 µM,> 10 µM
C=CC(=O)N1CC[C@H](C(=O)N(C)[C@H](C(=O)N[C@H]2Cc3cc(OC(=O)N(C)CC(=O)O)cc(c3)-c3ccc4c(c3)c(c(-c3ccccc3CCOC)n4CC)CC(C)(C)COC(=O)[C@@H]3CCCN(N3)C2=O)C(C)C)C1 [Example A078],> 10 µM,> 10 µM
CCn1c(-c2ccccc2COC)c2c3cc(ccc31)-c1cc(O)cc(c1)C[C@H](NC(=O)[C@H](C(C)C)N(C)C(=O)[C@H]1CCN(C(=O)/C=C/CN(C)C)C1)C(=O)N1CCC[C@H](N1)C(=O)OCC(C)(C)C2 [Example A079],0.1 to 1 µM,1 to 10 µM
CCn1c(-c2cnccc2COC)c2c3cc(ccc31)-c1cc(O)cc(c1)C[C@H](NC(=O)[C@H](C(C)C)N(C)C(=O)[C@H]1CCN(C(=O)C#CCN(C)C)C1)C(=O)N1CCC[C@H](N1)C(=O)OCC(C)(C)C2 [Example A088],0.1 to 1 µM,1 to 10 µM

# Now from value to compound:
IC50 (KRAS G12S),IC50 (KRAS G12D),SMILES
0.1 to 1 µM,1 to 10 µM,C=CC(=O)N1C[C@H](C)[C@H](C(=O)N(C)[C@H](C(=O)N[C@H]2Cc3cc(O)cc(c3)-c3ccc4c(c3)c(c(-c3ccccc3CN(C)C)n4CC)CC(C)(C)COC(=O)[C@@H]3CCCN(N3)C2=O)C(C)C)C1 [Example A052]
0.1 to 1 µM,1 to 10 µM,C=CC(=O)N1CC[C@H](C(=O)N(C)[C@H](C(=O)N[C@H]2Cc3cc(O)cc(c3)-c3ccc4c(c3)c(c(-c3cccnc3COC)n4CC)CC(C)(C)COC(=O)[C@@H]3CCCN(N3)C2=O)C2CCCC2)C1 [Example A055]
1 to 10 µM,> 10 µM,C=CC(=O)N1CC[C@@]2(CCN([C@H](C(=O)N[C@H]3Cc4cc(O)cc(c4)-c4ccc5c(c4)c(c(-c4ccccc4CCOC)n5CC)CC(C)(C)COC(=O)[C@@H]4CCCN(N4)C3=O)C(C)C)C2=O)C1 [Example A068]
1 to 10 µM,> 10 µM,C=CC(=O)N1CC[C@H](C(=O)N(C)[C@H](C(=O)N[C@H]2Cc3cc(O)cc(c3)-c3ccc4c(c3)c(c(-c3cncc(CN(C)C)c3)n4CC)CC(C)(C)COC(=O)[C@@H]3CCCN(N3)C2=O)C(C)C)C1 [Example A073]
> 10 µM,> 10 µM,C=CC(=O)N1CC[C@H](C(=O)N(C)[C@H](C(=O)N[C@H]2Cc3cc(O)cc(c3)-c3ccc4c(c3)c(c(-c3c(CCOC)cccc3OC)n4CC)CC(C)(C)COC(=O)[C@@H]3CCCN(N3)C2=O)C(C)C)C1 [Example A080]
1 to 10 µM,> 10 µM,C=CC(=O)N1CC[C@H](C(=O)N(C)[C@H](C(=O)N[C@H]2Cc3cc(O)cc(c3)-c3ccc4c(c3)c(c(-c3cncc(CCN(C)C)c3)n4CC)CC(C)(C)COC(=O)[C@@H]3CCCN(N3)C2=O)C(C)C)C1 [Example A081]
> 10 µM,> 10 µM,C=CC(=O)N1CC[C@H](C(=O)N(C)[C@H](C(=O)N[C@H]2Cc3cc(O)cc(c3)-c3ccc4c(c3)c(c(-c3ncccc3COC)n4CC)CC(C)(C)COC(=O)[C@@H]3CCCN(N3)C2=O)C(C)C)C1 [Example A084]
> 10 µM,> 10 µM,C=CC(=O)N1CC[C@H](C(=O)N(C)[C@H](C(=O)N[C@H]2Cc3cc(O)cc(c3)-c3ccc4c(c3)c(c(-c3nccnc3COC)n4CC)CC(C)(C)COC(=O)[C@@H]3CCCN(N3)C2=O)C(C)C)C1 [Example A085]
1 to 10 µM,> 10 µM,C=CC(=O)N1CC[C@H](C(=O)N(C)[C@H](C(=O)N[C@H]2Cc3cc(O)cc(c3)-c3ccc4c(c3)c(c(-c3cccnc3CN(C)C)n4CC)CC(C)(C)COC(=O)[C@@H]3CCCN(N3)C2=O)C(C)C)C1 [Example A092]
0.1 to 1 µM,1 to 10 µM,C=CC(=O)N1CC[C@H](C(=O)N(C)[C@H](C(=O)N[C@H]2Cc3cc(O)cc(c3)-c3ccc4c(c3)c(c(-c3cccnc3COC)n4CC#N)CC(C)(C)COC(=O)[C@@H]3CCCN(N3)C2=O)C(C)C)C1 [Example A093]
> 10 µM,> 10 µM,C=CC(=O)N1CC[C@H](C(=O)N(C)[C@H](C(=O)N[C@H]2Cc3nc(cs3)-c3ccc4c(c3)c(c(-c3cccnc3COC)n4CC)CC(C)(C)COC(=O)[C@@H]3CCCN(N3)C2=O)C(C)C)C1 [Example A094]
0.1 to 1 µM,1 to 10 µM,CCn1c(-c2cccnc2COC)c2c3cc(ccc31)-c1cc(O)cc(c1)C[C@H](NC(=O)[C@H](C(C)C)N(C)C(=O)C1CN(C(=O)C#CCN(C)C)C1)C(=O)N1CCC[C@H](N1)C(=O)OCC(C)(C)C2 [Example A097]
1 to 10 µM,> 10 µM,C=CC(=O)N1CC[C@H](C(=O)N(C)[C@H](C(=O)N[C@H]2Cc3cc(O)cc(c3)-c3ccc4c(c3)c(c(-c3ccc(C5CCN(C)CC5)nc3)n4CC)CC(C)(C)COC(=O)[C@@H]3CCCN(N3)C2=O)C(C)C)C1 [Example A098]
1 to 10 µM,> 10 µM,C=CC(=O)N1CC[C@H](C(=O)N(C)[C@H](C(=O)N[C@H]2Cc3cc(O)cc(c3)-c3ccc4c(c3)c(c(-c3cnn(C)c3)n4CC)CC(C)(C)COC(=O)[C@@H]3CCCN(N3)C2=O)C(C)C)C1 [Example A099]
